In patent publication US10260079B2, “Method for producing ergothioneine by using soybean cake powder as nitrogen source in a seed medium” (TIANJIN INSTITUTE OF INDUSTRIAL BIOTECHNOLOGY, CHINESE …, priority 2014, dated 2019):
Several values for one entry are separate records, joined by “and”; a condition that tells them apart may be missing. Identical values can stand only once. Like-named read-outs stand apart in the source and are kept apart here.

Tested on: Pleurotus ostreatus mycelia CGMCC No. 6232
Assay: Shake-flask fermentation, total content of ergothioneine in the fermentation broth by HPLC
Type: cell-based
[1] = Pleurotus ostreatus, CGMCC6232, 360 h, read-out: content of ergothioneine improved compared with control group

Compound: Nc1nc2ncc(CNc3ccc(C(=O)N[C@@H](CCC(=O)O)C(=O)O)cc3)nc2c(=O)[nH]1 [folic acid]
- activation at 640 µg/mL (Pleurotus ostreatus, CGMCC6232, 360 h, folic acid 0.64 g/L, read-out: content of ergothioneine improved compared with control group): 25%
- Content of ergothioneine in fermentation broth (folic acid 0.08 g/L added in fermentation medium): 121.4 ± 1.36 mg/L
- Content of ergothioneine in fermentation broth (folic acid 0.16 g/L added in fermentation medium): 127.1 ± 2.24 mg/L
- Content of ergothioneine in fermentation broth (folic acid 0.32 g/L added in fermentation medium): 136.9 ± 4.14 mg/L
- Content of ergothioneine in fermentation broth (folic acid 0.64 g/L added in fermentation medium): 148.6 mg/L and 148.6 ± 1.54 mg/L
- Content of ergothioneine in fermentation broth (folic acid 1.28 g/L added in fermentation medium): 143.8 ± 1.77 mg/L
- Content of ergothioneine in fermentation broth (folic acid 2.56 g/L added in fermentation medium): 122.2 ± 3.03 mg/L

Compound: N[C@@H](Cc1c[nH]cn1)C(=O)O [histidine]
- activation at 1000 µM (Pleurotus ostreatus, CGMCC6232, 360 h, histidine 1 mmol/L, read-out: content of ergothioneine improved compared with control group): 7.7%

Compound: CC(=O)C(=O)O [pyruvic acid]
- activation at 2200 µg/mL (Pleurotus ostreatus, CGMCC6232, 360 h, pyruvic acid 2.2 g/L, read-out: content of ergothioneine improved compared with control group): 5.9%
- Content of ergothioneine in fermentation broth (pyruvic acid 0.05 g/L added in fermentation medium): 127.4 ± 0.57 mg/L
- Content of ergothioneine in fermentation broth (pyruvic acid 0.1 g/L added in fermentation medium): 128.6 ± 1.03 mg/L
- Content of ergothioneine in fermentation broth (pyruvic acid 0.5 g/L added in fermentation medium): 130.4 ± 0.82 mg/L
- Content of ergothioneine in fermentation broth (pyruvic acid 1.0 g/L added in fermentation medium): 131.9 ± 1.43 mg/L
- Content of ergothioneine in fermentation broth (pyruvic acid 2.2 g/L added in fermentation medium): 132.7 mg/L and 132.7 ± 0.46 mg/L
- Content of ergothioneine in fermentation broth (pyruvic acid 4.5 g/L added in fermentation medium): 128.7 ± 0.69 mg/L

Compound: N[C@@H](CS)C(=O)O [cysteine]
- activation at 15000 µM (Pleurotus ostreatus, CGMCC6232, 360 h, cysteine 15 mmol/L added on the 6th day, read-out: content of ergothioneine improved compared with control group): 56%
- activation at 15000 µM (Pleurotus ostreatus, CGMCC6232, 360 h, cysteine 15 mmol/L, read-out: content of ergothioneine improved compared with control group): 46%
- Content of ergothioneine in fermentation broth (cysteine 2 mmol/L added in fermentation medium): 124.8 ± 2.03 mg/L
- Content of ergothioneine in fermentation broth (cysteine 9 mmol/L added in fermentation medium): 140.4 ± 1.83 mg/L
- Content of ergothioneine in fermentation broth (cysteine 15 mmol/L added in fermentation medium): 175.5 mg/L and 175.5 ± 1.36 mg/L
- Content of ergothioneine in fermentation broth (cysteine 15 mmol/L, timing for adding 0 d (before the fermentation)): 170.3 ± 1.92 mg/L
- Content of ergothioneine in fermentation broth (cysteine 15 mmol/L, timing for adding 2 d): 177.4 ± 2.33 mg/L
- Content of ergothioneine in fermentation broth (cysteine 15 mmol/L, timing for adding 4 d): 186.1 ± 1.67 mg/L
- Content of ergothioneine in fermentation broth (cysteine 15 mmol/L, timing for adding 6 d): 193.8 mg/L and 193.8 ± 4.16 mg/L
- Content of ergothioneine in fermentation broth (cysteine 15 mmol/L, timing for adding 8 d): 172.1 ± 1.73 mg/L
- Content of ergothioneine in fermentation broth (cysteine 15 mmol/L, timing for adding 10 d): 156.5 ± 2.52 mg/L
- Content of ergothioneine in fermentation broth (cysteine 25 mmol/L added in fermentation medium): 164.6 ± 4.31 mg/L
- Content of ergothioneine in fermentation broth (cysteine 35 mmol/L added in fermentation medium): 148.1 ± 2.74 mg/L
- Content of ergothioneine in fermentation broth (cysteine 45 mmol/L added in fermentation medium): 126.1 ± 2.99 mg/L

Compound: NCCCC[C@H](N)C(=O)O [lysine]
- Content of ergothioneine in fermentation broth: 124.8 ± 0.72 mg/L and 125.6 ± 2.03 mg/L and 128.9 ± 2.12 mg/L and 133.7 ± 1.51 mg/L and 135.1 ± 0.66 mg/L and 126.3 ± 2.67 mg/L
- activation at 5000 µg/mL [1]: 13.4%

Compound: OCC(O)CO [glycerol]
- activation at 75000 µg/mL (Pleurotus ostreatus, CGMCC6232, 360 h, glycerol 75 g/L vs 50 g/L, casein peptone 50 g/L, read-out: content of ergothioneine improved compared with control group): 8.5%
- Content of ergothioneine in fermentation broth (glycerol 65 g/L, casein peptone 50 g/L in fermentation medium (control glycerol 50 g/L)): 162.4 ± 2.67 mg/L
- Content of ergothioneine in fermentation broth (glycerol 75 g/L, casein peptone 50 g/L in fermentation medium (control glycerol 50 g/L)): 170.2 mg/L and 170.2 ± 3.49 mg/L
- Content of ergothioneine in fermentation broth (glycerol 85 g/L, casein peptone 50 g/L in fermentation medium (control glycerol 50 g/L)): 164.8 ± 3.41 mg/L
- Content of ergothioneine in fermentation broth (glycerol 95 g/L, casein peptone 50 g/L in fermentation medium (control glycerol 50 g/L)): 160.1 ± 1.15 mg/L

Compound: N[C@@H](CCC(=O)O)C(=O)O [glutamic acid]
- activation at 10 µM (Pleurotus ostreatus, CGMCC6232, 360 h, glutamic acid 10 μmol/L, read-out: content of ergothioneine improved compared with control group): 9.1%
- Content of ergothioneine in fermentation broth (glutamic acid 1 μmol/L added in fermentation medium): 123.6 ± 0.92 mg/L
- Content of ergothioneine in fermentation broth (glutamic acid 5 μmol/L added in fermentation medium): 128.8 ± 1.19 mg/L
- Content of ergothioneine in fermentation broth (glutamic acid 10 μmol/L added in fermentation medium): 131.2 mg/L and 131.2 ± 2.62 mg/L
- Content of ergothioneine in fermentation broth (glutamic acid 50 μmol/L added in fermentation medium): 124 ± 1.72 mg/L
- Content of ergothioneine in fermentation broth (glutamic acid 100 μmol/L added in fermentation medium): 122.7 ± 1.63 mg/L

Compound: C[N+](C)(C)CC(=O)O [betaine]
- activation at 150000 µM (Pleurotus ostreatus, CGMCC6232, 360 h, betaine 150 mmol/L, read-out: content of ergothioneine improved compared with control group): 22%
- Content of ergothioneine in fermentation broth (betaine 50 mmol/L added in fermentation medium): 125.3 ± 2.67 mg/L
- Content of ergothioneine in fermentation broth (betaine 100 mmol/L added in fermentation medium): 130.1 ± 2.14 mg/L
- Content of ergothioneine in fermentation broth (betaine 150 mmol/L added in fermentation medium): 146.6 mg/L and 146.6 ± 2.64 mg/L
- Content of ergothioneine in fermentation broth (betaine 200 mmol/L added in fermentation medium): 129.9 ± 3.34 mg/L
- Content of ergothioneine in fermentation broth (betaine 250 mmol/L added in fermentation medium): 124.8 ± 1.38 mg/L

Compound: N=C(N)NCCC[C@H](N)C(=O)O [arginine]
- activation at 2000 µg/mL [1]: 12.7%

Compound: NH4NO3
- Content of ergothioneine in fermentation broth: 127.2 ± 1.18 mg/L and 134 ± 2.46 mg/L and 140.7 ± 3.74 mg/L and 148 ± 0.82 mg/L and 141.4 ± 1.98 mg/L and 129.7 ± 1.03 mg/L
- content of ergothioneine improved compared with control group: 18.5%

Compound: CC(C)C[C@H](N)C(=O)O [leucine]
- activation at 100 µg/mL (Pleurotus ostreatus, CGMCC6232, 360 h, leucine 0.1 g/L, read-out: content of ergothioneine improved compared with control group): 11.9%
- Content of ergothioneine in fermentation broth (leucine 0.02 g/L added in fermentation medium): 127 ± 1.23 mg/L
- Content of ergothioneine in fermentation broth (leucine 0.05 g/L added in fermentation medium): 129.4 ± 2.17 mg/L
- Content of ergothioneine in fermentation broth (leucine 0.1 g/L added in fermentation medium): 133.3 mg/L and 133.3 ± 2.5 mg/L
- Content of ergothioneine in fermentation broth (leucine 0.25 g/L added in fermentation medium): 130.8 ± 2.46 mg/L
- Content of ergothioneine in fermentation broth (leucine 0.5 g/L added in fermentation medium): 125.5 ± 1.36 mg/L

Compound: CSCC[C@H](N)C(=O)O [methionine]
- activation at 15000 µM (Pleurotus ostreatus, CGMCC6232, 360 h, methionine 15 mmol/L added on the 4th day, read-out: content of ergothioneine improved compared with control group): 63.1%
- activation at 15000 µM (Pleurotus ostreatus, CGMCC6232, 360 h, methionine 15 mmol/L, read-out: content of ergothioneine improved compared with control group): 49.4%
- Content of ergothioneine in fermentation broth (methionine 3 mmol/L added in fermentation medium): 127.3 ± 3.47 mg/L
- Content of ergothioneine in fermentation broth (methionine 9 mmol/L added in fermentation medium): 154.8 ± 3.31 mg/L
- Content of ergothioneine in fermentation broth (methionine 15 mmol/L added in fermentation medium): 179.6 mg/L and 179.6 ± 4.17 mg/L
- Content of ergothioneine in fermentation broth (methionine 15 mmol/L, timing for adding 0 d (before the fermentation)): 179.3 ± 4.23 mg/L
- Content of ergothioneine in fermentation broth (methionine 15 mmol/L, timing for adding 2 d): 190.5 ± 2.84 mg/L
- Content of ergothioneine in fermentation broth (methionine 15 mmol/L, timing for adding 4 d): 202.6 mg/L and 202.6 ± 5.01 mg/L
- Content of ergothioneine in fermentation broth (methionine 15 mmol/L, timing for adding 6 d): 174.9 ± 3.73 mg/L
- Content of ergothioneine in fermentation broth (methionine 15 mmol/L, timing for adding 8 d): 160.3 ± 5.29 mg/L
- Content of ergothioneine in fermentation broth (methionine 15 mmol/L, timing for adding 10 d): 149.3 ± 3.27 mg/L
- Content of ergothioneine in fermentation broth (methionine 25 mmol/L added in fermentation medium): 168.5 ± 4.53 mg/L
- Content of ergothioneine in fermentation broth (methionine 35 mmol/L added in fermentation medium): 153.7 ± 3.2 mg/L
- Content of ergothioneine in fermentation broth (methionine 45 mmol/L added in fermentation medium): 126.9 ± 2.81 mg/L

Compound: Cl.N [NH4Cl]
- Content of ergothioneine in fermentation broth (NH4Cl 0.5 g/L added in fermentation medium): 127 ± 1.87 mg/L
- Content of ergothioneine in fermentation broth (NH4Cl 1 g/L added in fermentation medium): 133.7 ± 1.04 mg/L
- Content of ergothioneine in fermentation broth (NH4Cl 2 g/L added in fermentation medium): 139.2 ± 1.55 mg/L
- content of ergothioneine improved compared with control group (NH4Cl 4 g/L): 24.4%
- Content of ergothioneine in fermentation broth (NH4Cl 4 g/L added in fermentation medium): 155.4 mg/L and 155.4 ± 2.68 mg/L
- Content of ergothioneine in fermentation broth (NH4Cl 8 g/L added in fermentation medium): 141.8 ± 0.68 mg/L
- Content of ergothioneine in fermentation broth (NH4Cl 12 g/L added in fermentation medium): 128.6 ± 3.53 mg/L

Compound: span 80
- Content of ergothioneine in fermentation broth (span 80 0.2 g/L added in fermentation medium): 124.7 ± 2.59 mg/L
- Content of ergothioneine in fermentation broth (span 80 0.5 g/L added in fermentation medium): 156.3 ± 1.92 mg/L
- Content of ergothioneine in fermentation broth (span 80 1 g/L added in fermentation medium): 175.1 ± 2.83 mg/L
- content of ergothioneine improved compared with control group (span 80 3 g/L): 69.7%
- Content of ergothioneine in fermentation broth (span 80 3 g/L added in fermentation medium): 196.5 mg/L and 196.5 ± 3.54 mg/L
- Content of ergothioneine in fermentation broth (span 80 5 g/L added in fermentation medium): 184.3 ± 3.7 mg/L
- Content of ergothioneine in fermentation broth (span 80 10 g/L added in fermentation medium): 129.6 ± 1.18 mg/L

Compound: O=C(O)CCCc1c[nH]c2ccccc12 [indolebutyric acid]
- Content of ergothioneine in fermentation broth (indolebutyric acid 0.1 mg/L added in fermentation medium): 130.9 ± 2.23 mg/L
- Content of ergothioneine in fermentation broth (indolebutyric acid 0.5 mg/L added in fermentation medium): 138.4 ± 1.29 mg/L
- content of ergothioneine improved compared with control group (indolebutyric acid 1 mg/L): 9.33%
- Content of ergothioneine in fermentation broth (indolebutyric acid 1 mg/L added in fermentation medium): 140.6 mg/L and 140.6 ± 3.09 mg/L
- Content of ergothioneine in fermentation broth (indolebutyric acid 2 mg/L added in fermentation medium): 137.7 ± 1.84 mg/L
- Content of ergothioneine in fermentation broth (indolebutyric acid 4 mg/L added in fermentation medium): 132.8 ± 0.93 mg/L

Compound: N[C@@H](CC(=O)O)C(=O)O [aspartic acid]
- activation at 5000 µg/mL (Pleurotus ostreatus, CGMCC6232, 360 h, aspartic acid 5 g/L, read-out: content of ergothioneine improved compared with control group): 14.1%
- Content of ergothioneine in fermentation broth (aspartic acid 0.05 g/L added in fermentation medium): 124.1 ± 3.07 mg/L
- Content of ergothioneine in fermentation broth (aspartic acid 0.5 g/L added in fermentation medium): 128 ± 2.51 mg/L
- Content of ergothioneine in fermentation broth (aspartic acid 1 g/L added in fermentation medium): 130.1 ± 4.28 mg/L
- Content of ergothioneine in fermentation broth (aspartic acid 5 g/L added in fermentation medium): 135.9 mg/L and 135.9 ± 3.64 mg/L
- Content of ergothioneine in fermentation broth (aspartic acid 7 g/L added in fermentation medium): 127.9 ± 2.59 mg/L
- Content of ergothioneine in fermentation broth (aspartic acid 9 g/L added in fermentation medium): 123.8 ± 2.88 mg/L
